# Experimental data published in patent publication US12150938B2, “Biomarker of polycystic kidney disease and uses thereof” (Genzyme Corporation, priority 2015, dated 2024).
# Tests used:
# AMBP protein = assay: Immunoblot of AMBP protein levels in urine and kidney samples of treated jck mice; assay type: in vivo, mouse
# Description: Kidney samples were homogenized in RIPA buffer (Boston BioProducts) including 1 mM DTT, 5 mM EDTA, 2 mM NaF, 1 mM Na3VO4 (all supplied by Sigma-Aldrich), Pefabloc SC and Complete Proteinase Inhibitor Cocktail (both from Roche Applied Science). Protein concentrations were determined by BCA protein assay (Pierce). Urine samples were briefly centrifuged at 3000 RPM for 10 minutes at 4° C. (Beckman Coulter Allegra 6A) to remove cellular debris. An equal volume of urine was diluted in 5× Laemmli Buffer (15% SDS, 0.575 M sucrose, 0.325 M Tris, pH 6.8, 5% beta-mercaptoethanol and 0.002% bromophenol blue). Equal amounts of protein and urine were loaded onto 4-14% NuPage Bis-Tris gels following the manufacturer's protocols (Invitrogen). Membranes were blocked with 5% nonfat milk in Tris-buffered saline (TBS) including 0.1% Tween-20 and incubated with primary antibodies overnight at 4° C. Primary antibodies were detected with horseradish peroxidase-labeled secondary antibodies (Promega). Immunoreactive proteins were detected by enhanced chemiluminescence (GE Healthcare). Primary antibodies to the following proteins were used: α-1-microglobulin and β-actin (Abcam), and GAPDH (US Biological).
# Roscovitine was administered ad libitum to jck mice from 26 to 64 days of age by mixing in powdered 5053 diet at 0.2%. The GCSi (Genz-123346) was administered ad libitum to jck mice from day 26 to day 64 after birth by mixing in powdered 5053 diet at 0.225% (Natoli et al., Nature Med. 16:788-792, 2010). Chronic and pulse treatment with S-CR8 was performed by daily intraperitoneal injection with 24 mg/kg starting from day 26 after birth. Urine was collected for 24 hours consecutively (at day 26, 33, 41, 48, and 64 after birth) over a 5-week period from animals with a range of disease severity measured by kidney to body weight ratio (K/BW) and cystic percentage (C %).
# A second set of experiments was performed in jck mice to determine a second CDK inhibitor, S-CR8, would decrease both AMBP levels and kidney volume. In these experiments, the jck animals were administered one of the following treatment schedules starting at day 26 after birth: (A) daily intraperitoneal injection with 24 mg/kg S-CR8 for five weeks; (B) daily intraperitoneal injection with 24 mg/kg S-CR8 for three weeks, and two weeks with no treatment; and (D) daily intraperitoneal injection with 24 mg/kg S-CR8 for one week and four weeks with no treatment (FIG. 18). As a control, jck animals were administered a vehicle between day 26 to day 64 after birth.
# jck mice = assay: Treatment of jck mice (PKD model): kidney volume / cyst volume; assay type: in vivo, mouse
# Description: C57BL/6J jck/+ mice were maintained for mating. Cystic jck/jck mice were genotyped as previously described (Smith et al., J. Am. Soc. Nephrol. 17:2821-2831, 2006). […] conditional knockout mice were generated as described previously (Natoli et al., Nature Med. 16:788-792, 2010). The […] gene was deleted by inducing the Cre recombinase activity with tamoxifen delivered in sunflower oil (Sigma-Aldrich, St. Louis, MO), on postnatal day 1 with 100 mg/kg.
# A jck mouse model of PKD (Smith et al., J. Am. Soc. Nephrol. 17:2821-2831, 2006) was used to assess the expression of AMBP. Jck mice are characterized by development of moderately progressive renal cystic disease. Kidneys from the jck mouse model are enlarged by day 26 after birth and have multiple cysts. […] Renal function in jck mice, as measured by serum creatinine and blood urea nitrogen, progressively elevates over time. […] Cysts originating from the proximal tubules are not detected in jck mice (Smith et al., J. Am. Soc. Nephrol. 17:2821-2831, 2006).
# Roscovitine was administered ad libitum to jck mice from 26 to 64 days of age by mixing in powdered 5053 diet at 0.2%. […] Urine was collected for 24 hours consecutively (at day 26, 33, 41, 48, and 64 after birth) over a 5-week period from animals with a range of disease severity measured by kidney to body weight ratio (K/BW) and cystic percentage (C %). […]
# [1] = 0.225% in diet day 26 to day 64 after birth, day 64, vs vehicle (FIG. 22)
# [2] = oral 0.2% in feed day 26 to day 64 after birth, day 64, vs vehicle (FIG. 17)
compound,measurement,setting,value
CCCCCCCCC(=O)N[C@H](CN1CCCC1)[C@H](O)c1ccc2c(c1)OCCO2 [Genz-123346],AMBP levels in kidney tissue samples,AMBP protein; [1],decrease
same,AMBP levels in urine samples,AMBP protein; [1],decrease
CC[C@@H](CO)Nc1nc(NCc2ccc(-c3ccccn3)cc2)c2ncn(C(C)C)c2n1 [S-CR8],"cyst volume (cystic volume as percentage of body weight, FIG. 19)","jck mice; daily intraperitoneal 24 mg/kg from day 26, all tested schedules (A 5 weeks, B 3 weeks, D 1 week), vs vehicle",decrease
same,urine AMBP protein levels,"AMBP protein; daily intraperitoneal 24 mg/kg from day 26, all tested schedules (A, B, D), urine at day 64, vs vehicle (FIGS. 20 and 21)",decrease
CC[C@H](CO)Nc1nc(NCc2ccccc2)c2ncn(C(C)C)c2n1 [roscovitine],"kidney volume (kidney to body weight, FIG. 16)","jck mice; oral 0.2% in feed day 26 to day 64 after birth, measured at day 64, vs vehicle",decrease
same,AMBP protein levels in kidney samples,AMBP protein; [2],decrease
same,AMBP protein levels in urine,AMBP protein; [2],decrease
